Results on 1 compound are retold here after ChEMBL document CHEMBL4373740, “Synthesis and biological evaluation of new MET inhibitors with 1,6-naphthyridinone scaffold” (Eur J Med Chem, 2020).

Data set [1] deals with Fibroblast growth factor receptor 1 (Homo sapiens) (UniProt P11362). Put plainly: Inhibition of recombinant human N-terminal His-tagged FGFR1 catalytic domain (399 to 822 residues) expressed in baculovirus infected Sf21 insect cells at 1 uM using biotin as substrate preincubated for 5 mins followed by substrate addition and measured after 30 to 60 mins in presence of ATP by HTRF assay relative to control.

Data set [2] deals with Dual specificity tyrosine-phosphorylation-regulated kinase 4 (Homo sapiens) (UniProt Q9NR20). Put plainly: Inhibition of recombinant human GST-tagged DYRK4 expressed in baculovirus system at 1 uM using biotin as substrate preincubated for 5 mins followed by substrate addition and measured after 30 to 60 mins in presence of ATP by HTRF assay relative to control.
The target of data set [3] is Tyrosine-protein kinase Fes/Fps (Homo sapiens) (UniProt P07332). Put plainly: Inhibition of recombinant human His-tagged FES expressed in baculovirus system at 1 uM using biotin as substrate preincubated for 5 mins followed by substrate addition and measured after 30 to 60 mins in presence of ATP by HTRF assay relative to control.
The nature of data set [4]: Cmax in Sprague-Dawley rat at 1.0 mg/kg, iv measured for 5 min to 72 hrs by LC-MS/MS analysis. The class given is ADME, organism-based. The arrangement: dose 1 mg/kg, route intravenous. The following applies: in vivo.
Data set [5] addresses Tyrosine-protein kinase receptor TYRO3 (Homo sapiens, UniProt Q06418). Put plainly: Inhibition of recombinant human GST-tagged RSE catalytic domain (451 to 890 residues) expressed in baculovirus expression system using biotin as substrate preincubated for 5 mins followed by substrate addition and measured after 30 to 60 mins in presence of ATP by HTRF assay.
The target of data set [6] is Tyrosine-protein kinase CSK (Homo sapiens) (UniProt P41240). Put plainly: Inhibition of recombinant full length human His-tagged CSK at 1 uM using biotin as substrate preincubated for 5 mins followed by substrate addition and measured after 30 to 60 mins in presence of ATP by HTRF assay relative to control.
Data set [7] is described as follows: Clearance in Sprague-Dawley rat at 5.0 mg/kg, ig measured for 15 min to 72 hrs by LC-MS/MS analysis. The format is ADME, organism-based. The following applies: in vivo, po.
The target in data set [8] is Macrophage colony-stimulating factor 1 receptor (Homo sapiens) (UniProt P07333). Put plainly: Inhibition of recombinant full length human His-tagged CSF1R expressed in baculovirus expression system at 1 uM using biotin as substrate preincubated for 5 mins followed by substrate addition and measured after 30 to 60 mins in presence of ATP by HTRF assay relative to control.

Data set [9] addresses Tyrosine-protein kinase JAK2 (Homo sapiens) (UniProt O60674). As to the kind of experiment: Inhibition of recombinant full length human GST-tagged JAK2 expressed in baculovirus expression system at 1 uM using biotin as substrate preincubated for 5 mins followed by substrate addition and measured after 30 to 60 mins in presence of ATP by HTRF assay relative to control.
Data set [10] in a line: Oral bioavailability in Sprague-Dawley rat at 5.0 mg/kg, ig measured for 15 min to 72 hrs by LC-MS/MS analysis. The following applies: in vivo. The class given is ADME, organism-based.
Data set [11] deals with T1, Angiopoietin-1 receptor (Homo sapiens, UniProt Q02763). Put plainly: Inhibition of recombinant human GST-tagged TEK (817 to 1101 residues) expressed in baculovirus expression system using biotin as substrate preincubated for 5 mins followed by substrate addition and measured after 30 to 60 mins in presence of ATP by HTRF assay.
A short description of data set [12]: Volume of distribution in Sprague-Dawley rat at 5.0 mg/kg, ig measured for 15 min to 72 hrs by LC-MS/MS analysis. The format is ADME, organism-based. The following applies: in vivo, po.
Data set [13] deals with Tyrosine-protein kinase Mer (Homo sapiens, UniProt Q12866). Put plainly: Inhibition of recombinant human GST-tagged cMER (578 to 872 residues) expressed in baculovirus infected Sf21 insect cells using biotin as substrate preincubated for 5 mins followed by substrate addition and measured after 30 to 60 mins in presence of ATP by HTRF assay.
In data set [14] the target is T1, Angiopoietin-1 receptor. As to the kind of experiment: Inhibition of recombinant human GST-tagged TEK (817 to 1101 residues) expressed in baculovirus expression system at 1 uM using biotin as substrate preincubated for 5 mins followed by substrate addition and measured after 30 to 60 mins in presence of ATP by HTRF assay relative to control.
Data set [15] deals with Tyrosine-protein kinase Lck (Homo sapiens) (UniProt P06239). Put plainly: Inhibition of recombinant full length human His-tagged LCK expressed in baculovirus expression system at 1 uM using biotin as substrate preincubated for 5 mins followed by substrate addition and measured after 30 to 60 mins in presence of ATP by HTRF assay relative to control.
For data set [16], the target named is Dual specificity tyrosine-phosphorylation-regulated kinase 3 (Homo sapiens) (UniProt O43781). Put plainly: Inhibition of recombinant human GST-tagged DYRK3 expressed in baculovirus system at 1 uM using biotin as substrate preincubated for 5 mins followed by substrate addition and measured after 30 to 60 mins in presence of ATP by HTRF assay relative to control.

Data set [17] can be described thus: Antiproliferative activity against human NIH-H460 cells at 10 uM incubated for 72 hrs by MTT assay relative to control. The format is functional. As to conditions: NIH-H460, 72 h.
Data set [18] has as its target Tyrosine-protein kinase Lyn (Homo sapiens) (UniProt P07948). As to the kind of experiment: Inhibition of recombinant human N-terminal GST-tagged LYN A expressed in insect cells at 1 uM using biotin as substrate preincubated for 5 mins followed by substrate addition and measured after 30 to 60 mins in presence of ATP by HTRF assay relative to control.
In data set [19] the target is Insulin-like growth factor 1 receptor (Homo sapiens) (UniProt P08069). As to the kind of experiment: Inhibition of recombinant full length human His-tagged IGF1R expressed in baculovirus expression system at 1 uM using biotin as substrate preincubated for 5 mins followed by substrate addition and measured after 30 to 60 mins in presence of ATP by HTRF assay relative to control.

The target of data set [20] is High affinity nerve growth factor receptor (Homo sapiens, UniProt P04629). Put plainly: Inhibition of recombinant human His-tagged TRKA catalytic domain (441 to 796 residues) expressed in baculovirus expression system using biotin as substrate preincubated for 5 mins followed by substrate addition and measured after 30 to 60 mins in presence of ATP by HTRF assay.
The target of data set [21] is Epidermal growth factor receptor (Homo sapiens) (UniProt P00533). Put plainly: Inhibition of recombinant human GST-tagged EGFR (668 to 1210 residues) expressed in baculovirus expression system at 1 uM using biotin as substrate preincubated for 5 mins followed by substrate addition and measured after 30 to 60 mins in presence of ATP by HTRF assay relative to control.

In data set [22] the target is Mitogen-activated protein kinase 3 (Homo sapiens) (UniProt P27361). As to the kind of experiment: Inhibition of recombinant full length human GST-tagged MAPK3 expressed in Escherichia coli at 1 uM using biotin as substrate preincubated for 5 mins followed by substrate addition and measured after 30 to 60 mins in presence of ATP by HTRF assay relative to control.
Data set [23] deals with Macrophage-stimulating protein receptor (Homo sapiens, UniProt Q04912). Put plainly: Inhibition of recombinant human GST-tagged RON expressed in baculovirus system using biotin as substrate preincubated for 5 mins followed by substrate addition and measured after 30 to 60 mins in presence of ATP by HTRF assay.

T1 sequence (Q02763 whole entry, the tested form may be a part): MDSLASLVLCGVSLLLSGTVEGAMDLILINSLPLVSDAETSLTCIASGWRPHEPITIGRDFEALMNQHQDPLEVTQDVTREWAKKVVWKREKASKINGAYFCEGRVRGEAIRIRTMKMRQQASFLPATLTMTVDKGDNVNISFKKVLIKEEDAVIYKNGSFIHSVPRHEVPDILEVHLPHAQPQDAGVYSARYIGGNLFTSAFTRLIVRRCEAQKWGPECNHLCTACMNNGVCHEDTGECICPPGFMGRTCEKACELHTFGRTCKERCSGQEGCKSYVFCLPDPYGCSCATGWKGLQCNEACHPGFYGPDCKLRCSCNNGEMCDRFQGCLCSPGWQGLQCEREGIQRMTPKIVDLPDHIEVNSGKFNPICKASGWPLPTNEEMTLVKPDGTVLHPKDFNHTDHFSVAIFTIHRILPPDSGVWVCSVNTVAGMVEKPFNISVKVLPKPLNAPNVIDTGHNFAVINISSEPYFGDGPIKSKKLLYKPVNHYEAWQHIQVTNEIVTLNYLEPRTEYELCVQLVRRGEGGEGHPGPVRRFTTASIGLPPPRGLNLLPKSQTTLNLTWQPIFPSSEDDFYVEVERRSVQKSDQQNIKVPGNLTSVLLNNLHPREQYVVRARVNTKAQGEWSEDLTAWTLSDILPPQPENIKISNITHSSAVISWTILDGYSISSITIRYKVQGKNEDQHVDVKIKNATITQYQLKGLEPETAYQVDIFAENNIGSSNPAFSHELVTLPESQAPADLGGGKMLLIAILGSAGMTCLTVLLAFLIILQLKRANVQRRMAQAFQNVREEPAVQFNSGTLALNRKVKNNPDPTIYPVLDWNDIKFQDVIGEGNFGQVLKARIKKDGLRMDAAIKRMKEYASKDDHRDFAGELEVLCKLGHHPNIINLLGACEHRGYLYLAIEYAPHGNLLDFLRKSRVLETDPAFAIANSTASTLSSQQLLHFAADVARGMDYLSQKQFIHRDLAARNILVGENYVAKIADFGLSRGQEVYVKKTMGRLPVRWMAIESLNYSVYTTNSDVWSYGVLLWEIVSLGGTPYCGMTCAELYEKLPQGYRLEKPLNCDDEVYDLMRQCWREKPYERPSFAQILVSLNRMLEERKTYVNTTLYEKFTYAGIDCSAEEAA
Sequence of Macrophage colony-stimulating factor 1 receptor (Homo sapiens) (P07333 whole entry): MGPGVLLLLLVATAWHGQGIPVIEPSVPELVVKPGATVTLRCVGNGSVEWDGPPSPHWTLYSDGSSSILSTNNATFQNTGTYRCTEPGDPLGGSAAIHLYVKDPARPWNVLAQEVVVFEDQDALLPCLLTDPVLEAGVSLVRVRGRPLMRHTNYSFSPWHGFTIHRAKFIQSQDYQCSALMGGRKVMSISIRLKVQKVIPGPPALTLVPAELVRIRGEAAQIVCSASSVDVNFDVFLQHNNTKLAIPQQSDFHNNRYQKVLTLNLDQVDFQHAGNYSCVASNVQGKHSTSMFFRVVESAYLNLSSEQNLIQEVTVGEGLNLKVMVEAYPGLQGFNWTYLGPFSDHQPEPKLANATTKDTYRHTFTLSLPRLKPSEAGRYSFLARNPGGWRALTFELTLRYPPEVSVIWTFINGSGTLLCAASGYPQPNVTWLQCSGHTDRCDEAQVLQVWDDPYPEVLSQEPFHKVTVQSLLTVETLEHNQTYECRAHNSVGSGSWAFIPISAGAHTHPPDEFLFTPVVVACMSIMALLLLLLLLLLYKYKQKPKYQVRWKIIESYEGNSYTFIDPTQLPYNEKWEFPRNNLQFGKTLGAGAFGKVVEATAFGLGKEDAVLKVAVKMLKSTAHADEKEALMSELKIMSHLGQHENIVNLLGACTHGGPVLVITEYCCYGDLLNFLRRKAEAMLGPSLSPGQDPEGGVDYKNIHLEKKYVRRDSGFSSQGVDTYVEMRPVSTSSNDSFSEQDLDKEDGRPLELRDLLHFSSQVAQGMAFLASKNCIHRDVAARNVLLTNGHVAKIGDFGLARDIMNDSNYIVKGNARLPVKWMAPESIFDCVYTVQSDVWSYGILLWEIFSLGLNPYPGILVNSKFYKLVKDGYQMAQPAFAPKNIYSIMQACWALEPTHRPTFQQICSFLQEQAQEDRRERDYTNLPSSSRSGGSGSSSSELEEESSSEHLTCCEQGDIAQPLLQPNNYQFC
Sequence of Insulin-like growth factor 1 receptor (Homo sapiens) (P08069 31-736 limits assumed): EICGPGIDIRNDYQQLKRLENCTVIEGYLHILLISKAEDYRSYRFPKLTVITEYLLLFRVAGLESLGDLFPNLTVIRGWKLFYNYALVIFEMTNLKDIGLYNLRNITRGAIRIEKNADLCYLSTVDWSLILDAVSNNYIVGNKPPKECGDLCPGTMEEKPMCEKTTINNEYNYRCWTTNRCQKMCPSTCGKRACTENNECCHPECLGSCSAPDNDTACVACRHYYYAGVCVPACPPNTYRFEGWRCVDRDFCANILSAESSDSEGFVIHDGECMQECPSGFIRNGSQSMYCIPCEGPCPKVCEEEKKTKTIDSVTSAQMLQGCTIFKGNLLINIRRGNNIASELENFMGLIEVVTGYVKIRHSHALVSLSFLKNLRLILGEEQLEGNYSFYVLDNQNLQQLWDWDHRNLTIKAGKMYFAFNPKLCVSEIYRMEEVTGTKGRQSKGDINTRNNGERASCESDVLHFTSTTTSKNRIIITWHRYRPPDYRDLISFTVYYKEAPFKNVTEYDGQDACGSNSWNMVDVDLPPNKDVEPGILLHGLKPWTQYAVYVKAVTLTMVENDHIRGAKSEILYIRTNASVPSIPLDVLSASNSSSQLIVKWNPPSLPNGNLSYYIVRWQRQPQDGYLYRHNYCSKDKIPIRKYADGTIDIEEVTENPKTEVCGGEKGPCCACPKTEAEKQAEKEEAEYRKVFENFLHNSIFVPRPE
Sequence of Insulin-like growth factor 1 receptor (Homo sapiens) (P08069 741-1367 limits assumed): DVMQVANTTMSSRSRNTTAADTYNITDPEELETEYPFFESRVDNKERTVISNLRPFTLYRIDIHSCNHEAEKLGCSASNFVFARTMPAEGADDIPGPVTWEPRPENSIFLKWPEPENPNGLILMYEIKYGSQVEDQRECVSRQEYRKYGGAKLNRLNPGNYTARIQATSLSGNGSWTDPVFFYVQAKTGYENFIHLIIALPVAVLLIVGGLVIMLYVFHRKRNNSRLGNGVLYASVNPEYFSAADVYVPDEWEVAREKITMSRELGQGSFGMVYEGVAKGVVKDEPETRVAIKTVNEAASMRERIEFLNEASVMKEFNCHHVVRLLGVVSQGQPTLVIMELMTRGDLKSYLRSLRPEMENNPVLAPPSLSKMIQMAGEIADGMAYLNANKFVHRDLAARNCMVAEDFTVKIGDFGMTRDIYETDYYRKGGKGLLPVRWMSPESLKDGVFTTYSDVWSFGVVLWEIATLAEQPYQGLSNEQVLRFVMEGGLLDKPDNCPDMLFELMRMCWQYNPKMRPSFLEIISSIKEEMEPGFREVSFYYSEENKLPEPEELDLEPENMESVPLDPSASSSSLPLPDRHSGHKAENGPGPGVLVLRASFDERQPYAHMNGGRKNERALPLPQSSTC
Sequence of Tyrosine-protein kinase receptor TYRO3 (Q06418 whole entry, the tested form may be a part): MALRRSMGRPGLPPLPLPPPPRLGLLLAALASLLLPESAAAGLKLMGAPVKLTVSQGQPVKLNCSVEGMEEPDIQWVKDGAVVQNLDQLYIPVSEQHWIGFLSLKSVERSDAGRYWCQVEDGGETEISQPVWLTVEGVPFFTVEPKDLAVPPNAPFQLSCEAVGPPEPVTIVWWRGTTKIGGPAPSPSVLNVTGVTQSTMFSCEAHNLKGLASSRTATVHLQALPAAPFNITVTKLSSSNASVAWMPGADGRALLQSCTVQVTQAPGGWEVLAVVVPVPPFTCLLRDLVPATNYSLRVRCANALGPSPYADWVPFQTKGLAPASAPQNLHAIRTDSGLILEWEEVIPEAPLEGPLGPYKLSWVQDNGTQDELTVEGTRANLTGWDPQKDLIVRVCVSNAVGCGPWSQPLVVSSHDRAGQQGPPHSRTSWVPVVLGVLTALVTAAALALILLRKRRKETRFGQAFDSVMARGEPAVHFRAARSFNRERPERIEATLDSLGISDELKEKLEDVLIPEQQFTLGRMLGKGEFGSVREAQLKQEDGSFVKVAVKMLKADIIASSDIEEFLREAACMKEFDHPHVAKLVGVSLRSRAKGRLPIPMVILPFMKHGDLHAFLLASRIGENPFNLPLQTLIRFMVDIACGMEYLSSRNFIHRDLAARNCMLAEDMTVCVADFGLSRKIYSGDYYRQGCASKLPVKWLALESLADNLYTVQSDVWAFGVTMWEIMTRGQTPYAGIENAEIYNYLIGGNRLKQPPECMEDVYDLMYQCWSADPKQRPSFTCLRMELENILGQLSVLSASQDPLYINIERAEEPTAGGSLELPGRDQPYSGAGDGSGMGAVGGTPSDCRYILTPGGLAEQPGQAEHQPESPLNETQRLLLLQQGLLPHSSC
Sequence of Tyrosine-protein kinase Lyn (Homo sapiens) (P07948 2-512 limits assumed): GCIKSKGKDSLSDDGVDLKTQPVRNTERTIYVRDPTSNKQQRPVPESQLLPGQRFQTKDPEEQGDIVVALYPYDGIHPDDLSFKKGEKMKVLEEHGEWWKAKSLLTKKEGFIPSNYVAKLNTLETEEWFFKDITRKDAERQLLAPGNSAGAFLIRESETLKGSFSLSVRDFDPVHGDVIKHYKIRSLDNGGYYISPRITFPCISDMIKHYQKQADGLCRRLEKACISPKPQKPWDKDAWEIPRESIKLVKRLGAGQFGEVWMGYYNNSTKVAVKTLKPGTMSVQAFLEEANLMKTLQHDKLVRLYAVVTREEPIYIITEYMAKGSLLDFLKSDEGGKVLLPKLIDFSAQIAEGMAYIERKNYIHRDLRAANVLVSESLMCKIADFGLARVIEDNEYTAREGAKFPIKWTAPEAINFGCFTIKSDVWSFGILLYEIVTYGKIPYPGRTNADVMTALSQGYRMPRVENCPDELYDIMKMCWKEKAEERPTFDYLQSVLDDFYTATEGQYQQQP

Turning to `Cn1cc(-c2ccc(F)cc2)c(=O)c2c(Nc3ccc(Oc4ccnc(NC(=O)C5CC5)c4)c(F)c3)nccc21`, the inhibition in data set [1], in data set [2], in data set [3], in data set [6], in data set [8] and in [9] was under 50% in each case. Also, the inhibition was 50 to 79% in data set [14]; 50 to 79% in data set [15]; under 50% in data set [16]; under 50% in data set [18]; under 50% in data set [19]; under 50% in [21]. Moreover, the inhibition in data set [22] is under 50%. The compound further returned a Cmax in [4] of 6500 ng/mL. Besides, the half-maximal inhibitory concentration (IC50) in data set [5] was found to be 41.1 nM; in data set [11], 26.3 nM; in data set [13], 4.2 nM; in [20], 32.9 nM; in data set [23], 346 nM. The apparent clearance CL/F in data set [7] is 0.333 mL/min/kg. Further, in data set [10], the bioavailability stood at 58%. Moreover, in data set [12], the Vd stood at 0.6 L/kg. The compound also gave an inhibition at 10 µM in data set [17] of 15.6%.
